Experimental data: a melting point compilation (Tetko et al.; mined from patent text by program, amines drawn as free bases though some values may be those of a salt)

Compound | melting point
CC(C#N)(COc1cc(C#N)ccc1C(F)(F)F)NC(=O)c1ccc(OC(F)(F)F)cc1 (stereo not given) | 75 to 78 °C
CCCC(CC)Nc1cc(C(=O)O)ccc1N1C(=O)CCC1(CO)CO (stereo not given) | 232 to 233 °C
COc1ccc(C2(CCN3CCC(C(=O)c4nc5ccccc5[nH]4)CC3)CCN(C(=O)c3cc(OC)c(OC)c(OC)c3)C2)cc1OC (stereo not given) | 113 to 116 °C
CCCCOC1C=CC(=O)N1S(=O)(=O)c1ccccn1 (stereo not given) | 74 to 75 °C
CCn1cc(-c2cnccn2)cc(Br)c1=O | 129 to 132 °C
NC(=O)c1cc(OCCNCC(O)c2ccc(OCc3ccccc3)cc2)ccc1O (stereo not given) | 160 to 162 °C
CCNC(=O)n1nc(Oc2c([N+](=O)[O-])cc([N+](=O)[O-])cc2C(F)(F)F)cc1C | 169 to 171 °C
Cc1c(-c2ccccc2)n(-c2c(F)cccc2F)c(-c2ccccc2Cl)cc1=O | 213 to 215 °C
CCCn1ncnc1COc1nn2c(-c3ccc(F)cc3)nncc2c1-c1ccccc1F | 148 °C
N#Cc1ccc(-c2ccc3c(c2)CCc2nn(-c4ccccn4)c(O)c2-3)cc1 | 274 to 275 °C
COc1cc(COc2cccc(S(=O)(=O)c3ccc(C)nc3Nc3c(C)cc(C)cc3C)c2)cc(OC)c1 | 120 to 121 °C
Clc1ccc(COc2ccc(-c3nc(COc4ccc(CCCn5ccnc5)cc4)co3)cc2)cc1 | 151 to 152 °C
N#CSc1ccc(N)c(Br)c1 | 74 to 79 °C
COC(=O)c1cccc(OCc2nc(-c3ccccc3)oc2C)n1 | 97 to 98 °C
C=C(C)CN1C(=O)c2ccccc2Oc2ncccc21 | 106 to 107 °C
CC(C)C(C)(C)[Si](C)(C)OC1CCC2(C)C(=CC=C3C4CCC(=O)C4(C)CCC32)C1 (stereo not given) | 119 to 125 °C
CCCCCCCCCCCCCCCCCCNC(=O)O[C@@H]1CCCO[C@H]1COCc1ccccc1 (relative stereo) | 84 to 86 °C
COc1ccc(-n2nnc3c(-c4ccc(C(F)(F)F)cc4F)ncnc32)cc1 | 175 to 177 °C
CN1CCC(c2nn(C(=O)c3ccc(Cl)c(Cl)c3)c3ccccc23)CC1 | 187 to 189 °C
COc1ccc(C(=O)Nc2ccc(F)c(F)c2)cc1NCc1ccccc1 | 176 to 178 °C
CC(=O)Nc1cc(C)c2c(c1C)CC(C)(C)O2 | 161 to 162 °C
NC(Cc1nc2cc3ccccc3cc2nc1CP(=O)(O)O)C(=O)OCc1ccccc1 (stereo not given) | 215 °C
O=C1N(Cc2ccc(F)cn2)c2ccccc2C12COc1cc3c(cc12)OCCO3 (stereo not given) | 174 to 176 °C
CC[C@H](C)[C@H](O)C(=O)N1CCC(Oc2cc3ncnc(Nc4cccc(Cl)c4F)c3cc2OC)CC1 | 114 to 118 °C

Compound | melting point
CCOC(=O)CC(=O)CC(O)/C=C/c1c(-c2ccccc2)ccnc1C (stereo not given) | 83 to 84 °C
Cc1nnc2n1-c1sc(Cl)cc1C(c1c(F)cccc1F)=NC2 | 185 to 187 °C
CCOC(=O)c1c(CI)nc2cc(OC)c(OC)cc2c1-c1ccc(OC)c(OC)c1 | 170 to 171 °C
CC(C)N1CCN(Cc2ccc(-c3ccc4c(Nc5ccc(Sc6nccn6C)c(Cl)c5)c(C#N)cnc4c3)cc2)CC1 | 193 to 195 °C
C=CCOC(=O)c1cccc(NC(=O)NCC(=O)Nc2ccccc2C(=O)c2ccc(OC)cc2)c1 | 167 to 169 °C
Cn1cc(-c2cc3nccnc3[nH]2)c2ccccc21 | 264 to 266 °C
CCOC(=O)[C@H](Cc1cccc(OCc2ccc3ccccc3c2)c1)NC(=O)C(F)(F)F | 103 to 111 °C
N=C(N)Nc1nc(CO)cs1 | 163 to 165 °C
O=C(COc1ccccc1Br)c1ccccc1 | 112 to 113 °C
COc1cc2c(cc1Nc1ncc(Cl)c(Nc3ccccc3S(=O)(=O)N(C)C)n1)CCN(CC(=O)N(C)C)CC2 | 218 to 225 °C
CCCCCCCCCCCCCCCCCCC1CC(=O)N(c2ccc(N)cc2O)C1=O (stereo not given) | 85 to 90 °C
CCOC(=O)c1c(C)cc(C(=O)O)c(NC(C)=O)c1C | 164 °C
O=C(O)C1=Cc2cc(F)cc(Br)c2OC1C(F)(F)F (stereo not given) | > 300 °C
Nc1ncc(-c2ccccc2)nc1-c1ccc(O)cc1 | 181 to 183 °C
Cc1cccc(NC(=O)NC2CN(C(=O)C(C)(C)C)c3ccccc3N(CC(=O)N(C)C)C2=O)c1 (stereo not given) | 252 to 254 °C
Nc1ccc(C=C2c3ccccc3C=Cc3ccccc32)cc1 | 119 to 120 °C
COc1cccc(C(=O)Nc2ccc(S(N)(=O)=O)cc2)c1SSc1c(OC)cccc1C(=O)Nc1ccc(S(N)(=O)=O)cc1 | 188 to 189 °C
OC1CC2(CCNC2)c2ccccc21 (stereo not given) | 155 to 158 °C
O=C(Nc1cccnn1)N1CCN(c2ccnc(-c3ccc(F)cc3F)n2)CC1 | 200 to 201 °C
COc1cccc(CNC(=O)c2ccc(CCl)cc2)c1 | 108 to 110 °C
O=S(=O)(C(/C=C/c1ccc(F)cc1)c1c(F)c(F)c(F)c(F)c1F)C(/C=C/c1ccc(F)cc1)c1c(F)c(F)c(F)c(F)c1F (stereo not given) | 133 to 136 °C
CC(C)C#CC1(C(F)(F)F)OCC(=O)Nc2ccc(Cl)cc21 (stereo not given) | 183 to 184 °C
C1=C(CCc2ccccc2)CCN(Cc2nc3ccccc3[nH]2)C1 | 177 to 179 °C
CCc1sc2nc(=NS(=O)(=O)c3ccc(C)cc3)sn2c1-c1ccc2c(c1)CCCC2 | 151 to 152 °C

Compound | melting point
Cc1cc2cc(CN3CCCC3)cnc2cc1NC(=O)c1ccc(-c2ccc(Cl)cc2)c(F)c1 | 181 to 185 °C
CN(c1cccc2cc(C3=NCC(C)(C(N)=O)S3)[nH]c12)S(=O)(=O)c1cccs1 (stereo not given) | 248 to 249 °C
O=S1(=O)CCN2CCCC(c3ccc(Oc4cccc(Cl)c4)cc3)C2=N1 (stereo not given) | 165 to 167 °C
CC(=O)NCc1ccc(CN2CCN(c3ccc(F)cc3N)CC2)cc1 | 139 to 140 °C
CNC(=O)NCCN1CCC(=C2c3sccc3CCn3ccnc32)CC1 | 159 °C
CCCn1cc2c(n1)-c1c(nc3ccccc3c1N)CC2 | 225 to 226 °C
COc1ccccc1-c1nc(=O)c2ccccc2s1 | 144 °C
O=C(O)CNC(=O)c1c(F)cccc1[N+](=O)[O-] | 148 to 150 °C
CCCCCNC(=O)Nc1ccccc1C(=O)NC1CCN(C(c2ccccc2)c2ccccc2)CC1 | 199 to 201 °C
CCCCN1CCC(N(Cc2ccc(Nc3ccnc4ccccc34)cc2)C(C)=O)CC1 | 85 to 105 °C
COc1ccc(-c2ccc(C=NO)o2)cc1OC | 140 to 142 °C
CCCCCCCCCCCCNC(=O)C1CCC(=O)N1 (stereo not given) | 114 to 116 °C
COc1ccc(C(C)(C)CC(O)(C(=O)O)C(F)(F)F)cc1Br (stereo not given) | 94 to 96 °C
CS(=O)(=O)c1ccc(-n2cc(-c3ccc(Cl)cc3)nc2-c2ccc(Cl)cc2)cc1 | 169 to 171 °C
CCn1cc(C(=O)O)c(=O)c2cc(F)c(N3CCN4CCC3CC4)c(F)c21 | 261 to 263 °C
CC(C)(C)OC(=O)NCCOc1ccccc1OCCBr | 74 to 75 °C
CC(C)(O)c1cnn2c(-c3cccc(-c4ccncc4)c3F)cnc2n1 | 221 to 223 °C
O=C(Nc1ccc(N2CCNCC2)c(C(F)(F)F)c1)c1ccc(F)c(OCc2cccnc2)c1 | 61 to 66 °C
CC(C)c1ccccc1N=C1N=CC(C)(C)CS1 | 155 to 157 °C
COC(=O)C[C@H](O)C[C@H](O)CCc1c(-c2ccc(F)cc2)c(-c2ccc(F)cc2)c(C(=O)Nc2ccc(S(N)(=O)=O)cc2)n1C(C)C | 106 to 108 °C
C[C@@H]1C[C@H](I)[C@@H]2C[C@H]1C(=O)O2 | 99 to 100 °C
COC(=O)[C@@H](N)Cc1cc(I)c(Oc2ccc(O)cc2)c(I)c1 | 173 °C
CC(C)[C@H](NC(=O)OC(C)(C)C)[C@H]1CCn2c(c(C3=C(c4cn(-c5ccccc5)c5ccccc45)C(=O)OC3=O)c3ccccc32)C1 | 148 to 150 °C
O=C1N=NC(=O)c2c1[nH]c1cc(I)ccc21 | > 250 °C

Compound | melting point
CC1(C)NC(=O)N(c2ccc(F)c(C(F)(F)F)c2)C1=O | 111 to 114 °C
CN1Cc2c(C#N)ncn2-c2ccc(F)c(Cl)c2C1=O | 221 to 223 °C
CC(CC#CCN1CCN(C)CC1)C(=O)N1c2ccccc2C(=O)Nc2cccnc21 (stereo not given) | 212 to 214 °C
FC(F)(F)c1ccc(Oc2ccc(CCNc3ncnc4nccnc34)cc2)nc1 | 147 to 150 °C
NCC(=O)Nc1sccc1C(=O)c1ccccc1Cl | 156 to 158 °C
CC(C)OC(=O)NCc1cccc(-c2ccccc2)c1 | 61 to 64 °C
CCCCCCCCCCCCCCCCN1CCN(c2ccc(C=CC(=O)O)cc2)CC1 | 251 to 253 °C
Nc1nc2ccc(CCN3CCC(C(=O)c4ccccc4)CC3)cc2s1 | 186 to 188 °C
CC(=O)OC1CCC2(C)C(CCC3=C4C(=O)CC(C(C)CCCC(C)(C)O)C4(C)CCC32)C1 (stereo not given) | 151 to 152 °C
Cc1c(C(F)(F)F)ncn1-c1ncc(C(F)(F)F)cc1Cl | 59.4 °C
COc1ccc2cc([C@H](C)C(=O)OCC(CO[N+](=O)[O-])(CO[N+](=O)[O-])[N+](=O)[O-])ccc2c1 | 69 to 71 °C
Cc1cc(C(=O)O)ccc1Sc1ccc2c(c1)C(C)(C)CCC2(C)C | 195 to 196 °C
CCOC(=O)C(Cc1ccc(OCCNC(=O)c2ccc(-c3ccccc3)cc2)cc1)Oc1ccccc1 (stereo not given) | 103 to 104 °C
Nc1cc(Oc2ccc3c(c2)CCN3C(=O)Nc2cccc(C(F)(F)F)c2)ncn1 | 186 to 187 °C
CCN(CC)CC(O)CNC(=O)c1c(OC(=O)c2ccccc2)c2ccccc2n1-c1ccccc1 (stereo not given) | 130 to 133 °C
CCc1cc(S)n2nccc2n1 | 178 to 180 °C
CCc1nc2c(OCc3ccccc3)cc(Br)cc2n1C | 111 to 115 °C
COCC(COc1noc2ccc(Cl)cc12)NC=O (stereo not given) | 90 to 92 °C
CN(C(CCn1c(=O)cc(Cl)[nH]c1=O)C(=O)NO)S(=O)(=O)c1ccc(Oc2cccc(F)c2)cc1 (stereo not given) | 147 to 148 °C
CC(Cl)(Cl)C(NC(=O)c1ccc(F)cc1)NC(=NC#N)Nc1ccc(Cl)nc1 (stereo not given) | 197 to 198 °C
O=CNc1ccccc1F | 47 to 48 °C
CNC(=NS(C)(=O)=O)Nc1ccc(C2=NNC(=O)CC2C)cc1 (stereo not given) | 228 to 230 °C
O=C(c1ccc(O)c(O)c1)c1cccc(C(Cc2ccccc2)Cc2ccccc2)n1 | 141 to 143 °C
